This is an account of results in ChEMBL document CHEMBL3228022, “Synthesis of 2,3,4,4a,5,9b-hexahydro-1H-pyrido[4,3-b]indole derivatives and their central nervous system activities” (1979).

The source made the active and inactive calls. The rule behind the calls is not given here.

For test [1], the system named is Mus musculus. Put plainly: Neuroleptic activity in STD-ddy mouse assessed as inhibition of locomotion at 10 mg/kg, po measured for 3 mins. The test is classed as functional. To be noted: 0.05 h.
The test system of test [2] is Rattus norvegicus. The test is described as follows: Neuroleptic activity in Wistar HLA rat assessed as inhibition of methamphetamine-induced stereotyped behavior at 2 mg/kg, ip administered 20 mins before methamphetamine challenge measured every 30 mins for 3 hrs followed by every 1 hr for further 3 hrs. The test is classed as functional. On the set-up: Activity: scale not given: the % may be the effect or the level left. The note with it: route intraperitoneal.

The subject of test [3] is Mus musculus. Put plainly: Neuroleptic activity in STD-ddy mouse assessed as inhibition of locomotion at 100 mg/kg, po measured for 3 mins. In kind it is functional. The note with it: 0.05 h.
Test [4] deals with Mus musculus. The test is described as follows: Neuroleptic activity in STD-ddy mouse assessed as muscle relaxation at 100 mg/kg, po after 20 mins. The test is classed as functional, organism-based. On the set-up: dose 100 mg/kg.
Test [5] relates to Rattus norvegicus. The test is described as follows: Neuroleptic activity in Wistar HLA rat assessed as inhibition of methamphetamine-induced stereotyped behavior at 5 mg/kg, ip administered 20 mins before methamphetamine challenge measured every 30 mins for 3 hrs followed by every 1 hr for further 3 hrs. In kind it is functional. On the set-up: Activity: scale not given: the % may be the effect or the level left. To be noted: route intraperitoneal.

Test [6] relates to Rattus norvegicus. Put plainly: Neuroleptic activity in Wistar HLA rat assessed as inhibition of methamphetamine-induced stereotyped behavior at 10 mg/kg, ip administered 20 mins before methamphetamine challenge measured every 30 mins for 3 hrs followed by every 1 hr for further 3 hrs. In kind it is functional. Also noted: Activity: scale not given: the % may be the effect or the level left. The note with it: route intraperitoneal; for inhibition in vivo at 10 mg/kg: Rattus norvegicus, Wistar HLA, ip.

Test [7] has as its system Rattus norvegicus. The test is described as follows: Neuroleptic activity in Wistar HLA rat assessed as inhibition of methamphetamine-induced stereotyped behavior at 1 mg/kg, ip administered 20 mins before methamphetamine challenge measured every 30 mins for 3 hrs followed by every 1 hr for further 3 hrs. On the set-up: Activity: scale not given: the % may be the effect or the level left. To be noted: route intraperitoneal. The test is classed as functional.

Test [8] has as its system Rattus norvegicus. Put plainly: Neuroleptic activity in Wistar HLA rat assessed as stimulation of methamphetamine-induced stereotyped behavior at 5 mg/kg, ip administered 20 mins before methamphetamine challenge measured every 30 mins for 3 hrs followed by every 1 hr for further 3 hrs. In kind it is functional. The note with it: route intraperitoneal.
Test [9] concerns Rattus norvegicus. The test is described as follows: Neuroleptic activity in Wistar HLA rat assessed as stimulation of methamphetamine-induced stereotyped behavior at 2 mg/kg, ip administered 20 mins before methamphetamine challenge measured every 30 mins for 3 hrs followed by every 1 hr for further 3 hrs. The test is classed as functional. To be noted: route intraperitoneal.
The test system of test [10] is Mus musculus. Put plainly: Neuroleptic activity in STD-ddy mouse assessed as catalepsy at 100 mg/kg, po measured up to 30 secs. In kind it is functional, organism-based. Also noted: dose 100 mg/kg.
Test [11] deals with Rattus norvegicus. Put plainly: Neuroleptic activity in Wistar HLA rat assessed as stimulation of methamphetamine-induced stereotyped behavior at 10 mg/kg, ip administered 20 mins before methamphetamine challenge measured every 30 mins for 3 hrs followed by every 1 hr for further 3 hrs. To be noted: route intraperitoneal. In kind it is functional.
Test [12] deals with Mus musculus. The test is described as follows: Neuroleptic activity in po dosed STD-ddy mouse assessed as inhibition of active avoidance. The test is classed as functional.
Test [13] relates to Mus musculus. The test is described as follows: Neuroleptic activity in po dosed STD-ddy mouse assessed as catalepsy measured up to 30 secs. In kind it is functional.
The test system of test [14] is Mus musculus. Put plainly: Neuroleptic activity in po dosed STD-ddy mouse assessed as inhibition of locomotion measured for 3 mins. In kind it is functional. The note with it: 0.05 h.
Test [15] concerns Rattus norvegicus. Put plainly: Neuroleptic activity in po dosed Wistar HLA rat assessed as inhibition of intracranial self-stimulation measured for 1 to 24 hrs. In kind it is functional.
[16] abbreviates: Rattus norvegicus, Wistar HLA, ip.

On to `Cc1ccc2c(c1)[C@H]1CN(CCCN3c4ccccc4Sc4cc(Cl)ccc43)CC[C@H]1N2.Cl` (relative stereo), for which the inhibition in vivo – broadly, the change of the read-out against control, counted positive when it falls – at 10 mg/kg in test [1] worked out at 56.6%. Besides, the Activity in test [2], in [5], in test [6] and in test [7] was 0% throughout. Besides, in test [3], the inhibition in vivo at 100 mg/kg stood at 96.9%. In test [4], the outcome was inactive.

For the molecule `CCc1ccc2c(c1)[C@H]1CN(CCCC(=O)c3ccc(F)cc3)CC[C@H]1N2.Cl` (relative stereo), the values for the Activity in test [8], in [9] and in test [11] were over 75%, 25% and over 75%, respectively. In addition, the outcome in test [10] and in [4] was inactive. The inhibition in vivo at 100 mg/kg in [3] worked out at 44%.

`COc1ccc2c(c1)[C@H]1CN(CCCC(=O)c3ccc(F)cc3)CC[C@H]1N2.Cl` (relative stereo): the inhibition in vivo at 10 mg/kg amounted to 61.7% in [1] and 25% in [6]. The Activity in test [2], in test [5] and in test [7] was 0% throughout. For the same molecule, the inhibition in vivo at 100 mg/kg in [3] came to 96.7%. Also, the outcome in test [4] was Active.

Take `Cc1ccc2c(c1)[C@H]1CN(CCCC(=O)c3ccc(F)cc3)CC[C@H]1N2C.Cl` (relative stereo): the inhibition in vivo at 10 mg/kg in [1] amounted to 55.8%. The Activity amounted to 50% in [8], 50% in [11], 0% in test [2] and 0% in [7]. Besides, the result in test [10] was Active. Besides, the median effective dose (ED50) (usually the midpoint of the dose-response relation) in [12] is 20.1 mg/kg; in test [13], 40.3 mg/kg; in test [14], 10.2 mg/kg; in test [15] it was 30 mg/kg. In addition, the inhibition in vivo at 100 mg/kg in test [3] is 95.8%.

Turning to `CCN1c2ccc(C)cc2[C@H]2CN(CCCC(=O)c3ccc(F)cc3)CC[C@H]21.Cl` (relative stereo), the inhibition in vivo at 10 mg/kg in [1] was 34%. For the same molecule, the Activity in [8] is over 75%; in test [11], over 75%; in [2], 0%; in [7], 0%. Moreover, the outcome in test [10] and in test [4] was Active. Moreover, in test [3], the inhibition in vivo at 100 mg/kg amounted to 92.9%.

For the molecule `Cl.O=C(CCCN1CC[C@@H]2Nc3ccc(F)cc3[C@H]2C1)c1ccc(F)cc1` (relative stereo), the ED50 in [12] amounted to 5.19 mg/kg; in test [13], 8.08 mg/kg; in test [14], 7.12 mg/kg; in test [15], 4.54 mg/kg. In addition, in test [3], the inhibition in vivo at 100 mg/kg was 92.2%.

Consider `Cc1ccc2c(c1)[C@H]1CN(CCCC(=O)c3ccc(F)cc3)CC[C@@H]1N2.Cl` (relative stereo), for which, in test [2] (setting [16]), the inhibition in vivo at 2 mg/kg turned out to be 50%. The ED50 in [12] was 9.73 mg/kg; in test [13], 7.18 mg/kg; in test [14], 9.73 mg/kg; in test [15] it was 6.28 mg/kg. In test [3], the inhibition in vivo at 100 mg/kg was 86.5%. For the same molecule, the inhibition in vivo at 5 mg/kg in [5] (setting [16]) was over 75%. In addition, in test [6], the inhibition in vivo at 10 mg/kg is over 75%. In addition, in test [7], the Activity came to 25%.

Regarding `CN1c2ccc(F)cc2[C@H]2CN(CCCC(=O)c3ccc(F)cc3)CC[C@@H]21.O=C(O)/C=C\C(=O)O` (relative stereo), the 50% effective dose (ED50) was 4.58 mg/kg in test [12], 30.7 mg/kg in test [13], 12.8 mg/kg in [14] and 7.37 mg/kg in test [15]. Further, in test [3], the inhibition in vivo at 100 mg/kg turned out to be 92.7%.

`Cc1ccc2c(c1)[C@H]1CN(CCCC(=O)c3ccc(F)cc3)CC[C@@H]1N2C.O=C(O)/C=C\C(=O)O` (relative stereo): in test [10], the outcome was Active. Moreover, the ED50 in test [12] was 11.5 mg/kg; in [13], 55.9 mg/kg; in [14], 14.5 mg/kg; in test [15] it was 8.44 mg/kg. For the same molecule, the inhibition in vivo at 100 mg/kg in test [3] is 97.4%.
